Results reported in patent US8343759B2, “Mammalian cell line expressing inducible c-Src” (National University Corporation Chiba University, priority 2007, dated 2013).
Entries after “also recorded” stand apart in the source; their conditions may differ.

Columns and labels:
10T½ cells = test: PMA-stimulated macropinocytosis (RITC-dextran-labeled macropinosomes); type: cell-based, mouse; details: 10T½ cells pretreated with 5 μM SU6656 for 30 min, then 200 nM PMA plus 1 mg/ml RITC-dextran for 20 min
Method: Data represent means±SD from three independent experiments. […] For comparison, the open bar is a reproduction of the data of Src-CFP in FIG. 2D. B: COS-1 cells transfected with c-Src plus Src(SH4-Unique)-GFP were cultured for 24 h and visualized with anti-Src (red) immunofluorescence and GFP fluorescence (green). C: 10T½ cells transfected with Src(SH4-Unique)-GFP (control) were treated with 200 nM PMA plus 1 mg/ml RITC-dextran for 15 min (1 PMA). D: 10T½ cells expressing Src(SH4-Unique)-GFP were stimulated with 200 nM PMA and cells were monitored at 30-sec intervals. The time of PMA addition is indicated as 0 sec (00′00″). E: 10T½ cells expressing Lyn(SH4-Unique)-GFP were treated with 200 nM PMA for 30 min and imaged by GFP fluorescence and Nomarski optics. F: 10T½ cells were pretreated with 5 μM SU6656 or none for 30 min and then stimulated with 200 nM PMA plus 1 mg/ml RITC-dextran for 20 min. […] Data represent means±SD from three independent experiments. […] Arrows indicate macropinosomes. N, nucleus. Bars, 10 μm. Macropinosomes wider than 2 μm labeled by c-Src or mutants were counted. All values were expressed as means±D from three independent experiments. Rhodamine B-isothiocyanate (RITC)-dextran (Mr 70,000), PMA, and wortmannin were from Sigma-Aldrich. SU6656 (Blake et al., 2000) was from Calbiochem. EGF was a kind gift of M. N. Fukuda.

HeLa cells = test: EGF-induced macropinosome formation marked with Src(SH4-Unique)-GFP; type: cell-based, human; details: serum-starved HeLa cells expressing Src(SH4-Unique)-GFP, pretreated 30 min with 5 μM SU6656 or 200 nM wortmannin, then 50 ng/ml EGF for 15 min
Method: During stimulation, cells were treated with 1 mg/ml RITC-dextran (B). White arrows indicate macropinosomes. […] The number of macropinosomes associated with Src(SH4-Unique)-GFP per 200 cells is shown. Data represent means±SD from three independent experiments. […] Equal amounts of lysates (input lysates) were analyzed by Western blotting with anti-pTyr and anti-actin antibodies. c-Src immunoprecipitates from lysates were analyzed by Western blotting with anti-Src[Y^418] and anti-Src antibodies. c-Src kinase activity was quantitated by measuring signal intensity using anti-Src[pY^418] antibody and normalized to the corresponding signal intensity detected by anti-Src. Results are expressed as mean values (fold) relative to the specific activity of c-Src in unstimulated control cells. […] The number of Src:(SH4-Unique)-GFP-labeled macropinosomes per 200 HeLa (left) or 100 A431 (right) cells was counted. Data represent means±SD from three independent experiments. […] F: Lysates were analyzed by Western blotting with anti-Src[Y^418], anti-Src, anti-pTyr, and anti-actin antibodies. […] White arrows indicate macropinosomes containing RITC-dextran. […] I: Co-localization of RITC-dextran with cathepsin D in macropinosomes was quantitated. […] Macropinosomes wider than 2 μm labeled by c-Src or mutants were counted. All values were expressed as means±D from three independent experiments. […]

c-Src = biological target: T1, c-Src (Homo sapiens, UniProt P12931); test: c-Src kinase activity in immunoprecipitates by Western blotting with anti-Src[pY418]; type: cell-based; details: serum-starved HeLa cells pretreated with 5 μM SU6656, EGF for 15 min
T1 construct: endogenous in cells; host or cells: HeLa (serum-starved, EGF-stimulated)
Method: Results are expressed as mean values (fold) relative to the specific activity of c-Src in unstimulated control cells. […] F: Lysates were analyzed by Western blotting with anti-Src[Y^418], anti-Src, anti-pTyr, and anti-actin antibodies. […] Western blotting and immunoprecipitation were as described (Hirao et al., 1997; Mera et al., 1999; Yamaguchi et al., 2001; Kasahara et al., 2004). Cell lysates were prepared in Triton X-100 lysis buffer (50 mM HEPES, pH 7.4, 10% glycerol, 1% Triton X-100, 4 mM EDTA, 100 mM NaF, and 1 mM Na3VO4) containing protease inhibitors. For immunoprecipitation, lysates were incubated with protein G-Sepharose beads (Amersham) precoated with anti-Src (#327) overnight at 4° C.

EGFR = EGFR (Homo sapiens, UniProt P00533); test: EGFR activation by Western blotting of lysates with anti-pTyr; type: cell-based; details: serum-starved HeLa cells pretreated with 5 μM SU6656, EGF for 15 min
Method: F: Lysates were analyzed by Western blotting with anti-Src[Y^418], anti-Src, anti-pTyr, and anti-actin antibodies. […] Cell lysates were prepared in Triton X-100 lysis buffer (50 mM HEPES, pH 7.4, 10% glycerol, 1% Triton X-100, 4 mM EDTA, 100 mM NaF, and 1 mM Na3VO4) containing protease inhibitors.

COS-I cells = test: FRAP of Src-GFP on macropinosomes; type: cell-based; details: cycloheximide-treated COS-I cells, pretreated 10 min with 1 mM NEM or 0.5% tannic acid
Method: A-D: FRAP analysis of Src-GFP was performed in COS-I cells treated with cycloheximide. Cells expressing Src-GFP were pretreated with nothing (control) (A), I mM NEM (B), or 0.5% tannic acid (C) for 10 min. Enclosed areas (yellow circles) were photobleached and cells were monitored at 5-sec (A and C) or 60-sec intervals (B) for 10 min. Mean fluorescence intensities on macropinosomes were measured, and results are means±SD (control, n=4; NEM, n=3; Tannic acid, n=5). N, nucleus. Bars 5 μm. E: Equal amounts of lysates from S100 and P100 fractions of Src-GFP-expressing COS-I cells were analyzed by Western blotting with anti-Src, anti-cPLA2 (cytosol marker), and anti-desmoglein (plasma membrane marker) antibodies.
For live-cell imaging, cells cultured in 35-mm glass-based dishes were transiently transfected with plasmid DNA on the preceding day. Time-lapse monitoring was performed using a Fluoview FV5OO with a 40×1.00 oil objective. Images were obtained at low power laser (0.3-3.0% laser) using the 488 nm line of an argon laser. FRAP was performed as described (Kasahara et at., 2004). If necessary, COS-I cells were treated with 200 μg/ml cycloheximide (Sigma-Aldrich) for 2 h before images were obtained. […] Mean fluorescence intensities were quantitated using Fluoview Tiempo time course version 4.2 software. […]

EGFR, sequence (P00533 25-1210): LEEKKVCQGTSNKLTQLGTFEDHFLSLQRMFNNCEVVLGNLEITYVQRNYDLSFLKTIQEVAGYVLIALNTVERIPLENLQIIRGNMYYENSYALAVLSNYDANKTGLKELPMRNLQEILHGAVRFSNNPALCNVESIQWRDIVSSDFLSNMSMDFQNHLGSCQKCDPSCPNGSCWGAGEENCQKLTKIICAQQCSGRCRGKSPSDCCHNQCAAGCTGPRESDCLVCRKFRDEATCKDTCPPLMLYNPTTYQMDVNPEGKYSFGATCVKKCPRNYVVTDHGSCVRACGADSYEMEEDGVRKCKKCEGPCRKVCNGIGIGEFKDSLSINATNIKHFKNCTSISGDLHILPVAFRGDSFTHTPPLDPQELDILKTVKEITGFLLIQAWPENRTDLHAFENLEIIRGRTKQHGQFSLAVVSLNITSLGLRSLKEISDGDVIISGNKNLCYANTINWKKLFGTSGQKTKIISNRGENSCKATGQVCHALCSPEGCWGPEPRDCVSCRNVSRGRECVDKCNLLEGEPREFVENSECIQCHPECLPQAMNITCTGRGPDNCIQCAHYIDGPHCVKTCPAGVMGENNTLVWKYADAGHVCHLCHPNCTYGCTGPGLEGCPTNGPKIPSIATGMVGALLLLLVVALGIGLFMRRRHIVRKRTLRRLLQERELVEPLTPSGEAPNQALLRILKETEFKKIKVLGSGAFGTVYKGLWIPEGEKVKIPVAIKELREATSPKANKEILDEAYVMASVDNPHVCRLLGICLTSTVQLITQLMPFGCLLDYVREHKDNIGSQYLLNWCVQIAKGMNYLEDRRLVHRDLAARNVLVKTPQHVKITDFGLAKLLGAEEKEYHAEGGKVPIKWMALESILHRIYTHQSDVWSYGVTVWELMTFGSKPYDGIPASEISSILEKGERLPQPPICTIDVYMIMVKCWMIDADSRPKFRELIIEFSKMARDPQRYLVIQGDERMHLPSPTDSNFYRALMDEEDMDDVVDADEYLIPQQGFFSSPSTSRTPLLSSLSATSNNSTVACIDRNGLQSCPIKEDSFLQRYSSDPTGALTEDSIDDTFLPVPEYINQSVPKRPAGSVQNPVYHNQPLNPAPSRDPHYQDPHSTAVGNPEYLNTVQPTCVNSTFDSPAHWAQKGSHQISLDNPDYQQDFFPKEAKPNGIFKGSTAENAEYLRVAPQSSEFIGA
T1 sequence (P12931 whole entry): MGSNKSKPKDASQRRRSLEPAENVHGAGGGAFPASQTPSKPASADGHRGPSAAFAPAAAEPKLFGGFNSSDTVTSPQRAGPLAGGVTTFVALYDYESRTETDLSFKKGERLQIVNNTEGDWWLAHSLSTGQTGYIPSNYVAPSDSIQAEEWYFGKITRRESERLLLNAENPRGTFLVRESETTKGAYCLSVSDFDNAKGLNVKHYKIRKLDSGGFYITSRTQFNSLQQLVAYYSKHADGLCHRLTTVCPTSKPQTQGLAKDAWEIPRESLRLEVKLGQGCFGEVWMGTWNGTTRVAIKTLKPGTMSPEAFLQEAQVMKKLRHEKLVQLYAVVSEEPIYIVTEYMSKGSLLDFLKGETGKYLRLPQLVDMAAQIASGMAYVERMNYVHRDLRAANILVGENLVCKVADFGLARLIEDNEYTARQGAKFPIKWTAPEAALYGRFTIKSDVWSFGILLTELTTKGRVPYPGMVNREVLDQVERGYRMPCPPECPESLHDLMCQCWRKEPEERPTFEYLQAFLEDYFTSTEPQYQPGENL

| Structure (SMILES) | inhibition of PMA-stimulated macropinocytosis (10T½ cells) | inhibition of EGF-induced macropinosome formation (HeLa cells) | effect on c-Src activity (c-Src) | effect on EGFR activation (EGFR) | inhibition of fluorescence recovery of Src-GFP on macropinosomes (COS-I cells) |
| --- | --- | --- | --- | --- | --- |
| CN(C)S(=O)(=O)c1ccc2c(c1)/C(=C/c1cc3c([nH]1)CCCC3)C(=O)N2 [SU6656] | not significant; also recorded: not inhibited; also recorded: did not inhibit | partly inhibited | decreased c-Src activity below basal levels | without affecting | – |
| O=C(OC[C@H]1O[C@@H](OC(=O)c2cc(O)c(O)c(OC(=O)c3cc(O)c(O)c(O)c3)c2)[C@H](OC(=O)c2cc(O)c(O)c(OC(=O)c3cc(O)c(O)c(O)c3)c2)[C@@H](OC(=O)c2cc(O)c(O)c(OC(=O)c3cc(O)c(O)c(O)c3)c2)[C@@H]1OC(=O)c1cc(O)c(O)c(OC(=O)c2cc(O)c(O)c(O)c2)c1)c1cc(O)c(O)c(OC(=O)c2cc(O)c(O)c(O)c2)c1 [tannic acid] | – | – | – | – | partly inhibited |
| CCN1C(=O)C=CC1=O [NEM, N-ethyl maleimide] | – | – | – | – | inhibited |
